Data: PMC9219103 (ACS Omega, 2022)
“And” between values parts separate entries of the source, which are not always exact repeats. Equal entries are not always repeated.

Columns and labels:
[1] = test system: SOD; settings: read-out: SOD inhibition IC50; via copper chelation; cited from earlier work
[2] = test system: human colon cancer (Caco-2) cells; test: MTT anticancer screening on human colon cancer Caco-2 cells; type: cell-based; settings: for IC50: Caco-2, MTT, 72 h, mean ± SEM; for Morphological changes of Caco-2 cells: 72 h treatment, phase contrast microscopy
[3] = test system: normal human cells (Wi-38); test: MTT cytotoxicity screening on normal human cells; type: cell-based; settings: for EC100 (safe concentration at 100% cell viability): Wi-38 normal human lung fibroblasts, MTT, 72 h, mean ± SEM
[4] = test system: glutathione peroxidase (GPx); test: Inhibition of glutathione peroxidase activity in treated Caco-2 cells; type: cell-based, human; settings: Caco-2 cells treated with anticancer IC50 dose, 72 h
[5] = target: Cu/Zn SOD (Homo sapiens, UniProt P00441); test: Inhibition of intracellular SOD activity in treated Caco-2 cells; type: cell-based; settings: Caco-2 cells treated with anticancer IC50 dose, 72 h
Sequence of Cu/Zn SOD (P00441 whole entry): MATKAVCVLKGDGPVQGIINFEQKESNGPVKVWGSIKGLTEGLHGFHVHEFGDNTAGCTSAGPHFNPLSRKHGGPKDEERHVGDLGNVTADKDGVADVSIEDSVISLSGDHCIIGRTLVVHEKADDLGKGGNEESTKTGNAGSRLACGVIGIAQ

[6] = test system: ALDH1A; test: Inhibition of ALDH1A activity in treated Caco-2 cells; type: cell-based, human; settings: Caco-2 cells treated with anticancer IC50 dose, 72 h
[7] = test system: Caco-2 cells; test: Determination of cellular ROS in Caco-2; type: cell-based, human; settings: Caco-2 cells treated with anticancer IC50 dose

SMILES | IC50 ([2]; Homo sapiens, Caco-2, 72 h) [µM] | EC100 (safe concentration at 100% cell viability) [3] | also measured
C[N+](C)(C)CCO.C[N+](C)(C)CCO.[SH-].[SH-].[S]=[Mo]=[S] [ATN-224, bis-choline tetrathiomolybdate] | – | – | IC50 [1]: 0.33 µM
C=CCN1C(=O)SC(=Cc2cccc(Cl)c2)C1=O [Compound 4b, 3-Allyl-5-(3-chlorobenzylidene)thiazolidine-2,4-dione] | 13.8 ± 0.789 | 9.902 ± 2.360 µM | –
C=CCN1C(=O)SC(=Cc2ccc([N+](=O)[O-])cc2)C1=O [Compound 4c, 3-Allyl-5-(4-nitrobenzylidene)thiazolidine-2,4-dione] | 6.52 ± 0.077 | 7.078 ± 0.136 µM | –
C=CCOc1ccc(C=C2SC(=O)N(CC=C)C2=O)cc1 [Compound 4e, 3-Allyl-5-(4-(allyloxy)benzylidene)thiazolidine-2,4-dione] | 12.2 ± 3.12 | – | –
CCOC(=O)CN1C(=O)SC(=Cc2ccc([N+](=O)[O-])cc2)C1=O [Compound 5c, Ethyl-2-(5-(4-nitrobenzylidene)-2,4-dioxothiazolidin-3-yl)acetate] | 6.67 ± 0.118 | 8.573 ± 0.409 µM | –
CCOC(=O)CN1C(=O)SC(=Cc2ccc(N(C)C)cc2)C1=O [Compound 5d, Ethyl-2-(5-(4-(dimethylamino)benzylidene)-2,4-dioxothiazolidin-3-yl)acetate] | 8.24 ± 2.59 | 16.179 ± 6.066 µM | –
O=C1SC(=Cc2ccc([N+](=O)[O-])cc2)C(=O)N1CCCBr [Compound 6c, 3-(3-Bromopropyl)-5-(4-nitrobenzylidene)thiazolidine-2,4-dione] | 10.4 ± 0.499 | 13.424 ± 1.130 µM | –
O=C1SC(=Cc2ccc(OCCCBr)cc2)C(=O)N1CCCBr [Compound 6e, 5-(4-(3-Bromopropoxy)benzylidene)-3-(3-bromopropyl)thiazolidine-2,4-dione] | 4.41 | 10.683 ± 2.384 µM | Morphological changes of Caco-2 cells [2]: severe shrinkage and collapse; IC50 [2]: 4.41 ± 0.546 µM
O=C1SC(=Cc2ccccc2)C(=O)N1CCCO [Compound 7a, 5-Benzylidene-3-(3-hydroxypropyl)thiazolidine-2,4-dione] | 10.2 ± 0.77 | 18.923 ± 1.959 µM | –
CN(C)c1ccc(C=C2SC(=O)N(CCCO)C2=O)cc1 [Compound 7d, 5-(4-(Dimethylamino)benzylidene)-3-(3-hydroxypropyl)thiazolidine-2,4-dione] | 7.118 ± 0.01 | 12.073 ± 3.577 µM | –

Further molecules by falling IC50 ([2]; Homo sapiens, Caco-2, 72 h), results first:

IC50 ([2]; Homo sapiens, Caco-2, 72 h) [µM] | SMILES | EC100 (safe concentration at 100% cell viability) [3] | also measured
74.6 ± 8.31 | O=C1N=C(O)SC1=Cc1ccccc1 [Compound 3a, 5-Benzylidenethiazolidine-2,4-dione] | 19.679 ± 3.105 µM | –
19.9 | COc1cccc2c1C(=O)c1c(O)c3c(c(O)c1C2=O)C[C@@](O)(C(=O)CO)C[C@@H]3O[C@H]1C[C@H](N)[C@H](O)[C@H](C)O1 [DOX, doxorubicin] | 1.239 ± 0.285 µM | Inhibition of GPx activity [4]: 40.31%; IC50 [2]: 19.9 ± 2.37 µM; Inhibition of intracellular SOD activity [5]: 30.78%; Inhibition of ALDH1A activity [6]: about 4.800%; Fold increment in cellular ROS level relative to untreated cells [7]: 4.065 folds
12.1 ± 3.25 | O=C1CSC(=O)N1 [Compound 1, 2,4-thiazolidinedione] | 22.05 µM and 22.047 ± 0.434 µM | –
12 ± 1.36 | C=CCN1C(=O)SC(=Cc2ccccc2)C1=O [Compound 4a, 3-Allyl-5-benzylidenethiazolidine-2,4-dione] | 58.92 µM and 58.916 ± 10.698 µM | EC100 fold relative to doxorubicin (safety) ([3]; Wi-38, EC100 compound vs DOX): approximately 47.5 folds
8.95 ± 0.631 | CN(C)c1ccc(C=C2SC(O)=NC2=O)cc1 [Compound 3d, 5-(4-(Dimethylamino)benzylidene)thiazolidine-2,4-dione] | 25.35 µM and 25.345 ± 0.655 µM | –
8.57 ± 0.942 | CCOC(=O)COc1ccc(C=C2SC(=O)N(CC(=O)OCC)C2=O)cc1 [Compound 5e, Ethyl-2-(5-(4-(2-ethoxy-2-oxoethoxy)benzylidene)-2,4-dioxothiazolidin-3-yl)acetate] | 8.417 ± 0.004 µM | –
8.48 ± 0.599 | O=C1NC(=O)C(=Cc2ccc(O)cc2)S1 [Compound 3e, 5-(4-Hydroxybenzylidene)thiazolidine-2,4-dione] | 6.727 ± 0.040 µM | –
8.2 ± 0.135 | CCOC(=O)CN1C(=O)SC(=Cc2ccccc2)C1=O [Compound 5a, Ethyl-2-(5-benzylidene-2,4-dioxothiazolidin-3-yl)acetate] | – | –
7.94 ± 0.599 | CN(C)c1ccc(C=C2SC(=O)N(CCCBr)C2=O)cc1 [Compound 6d, 3-(3-Bromopropyl)-5-(4-(dimethylamino)benzylidene)thiazolidine-2,4-dione] | 14.776 ± 1.125 µM | –
7.062 ± 0.005 | C=CCN1C(=O)SC(=Cc2ccc(N(C)C)cc2)C1=O [Compound 4d, 3-Allyl-5-(4-(dimethylamino)benzylidene)thiazolidine-2,4-dione] | – | –
6.77 ± 0.096 | O=C1SC(=Cc2ccc([N+](=O)[O-])cc2)C(=O)N1CCCO [Compound 7c, 3-(3-Hydroxypropyl)-5-(4-nitrobenzylidene)thiazolidine-2,4-dione] | 11.439 ± 0.927 µM | –
4.73 | O=C1SC(=Cc2ccccc2)C(=O)N1CCCBr [Compound 6a, 5-Benzylidene-3-(3-bromopropyl)thiazolidine-2,4-dione] | 18.938 ± 0.975 µM | Morphological changes of Caco-2 cells [2]: severe shrinkage and collapse; IC50 [2]: 4.739 ± 0.021 µM
4.71 | O=C1NC(=O)C(=Cc2ccc([N+](=O)[O-])cc2)S1 [Compound 3c, 5-(4-Nitrobenzylidene)thiazolidine-2,4-dione] | 6.0653 ± 0.127 µM | Morphological changes of Caco-2 cells [2]: severe shrinkage and collapse; IC50 [2]: 4.72 ± 0.602 µM
